Laboratory results published in PMC9863751, “Specific Binding of the α-Component of the Lantibiotic Lichenicidin to the Peptidoglycan Precursor Lipid II Predetermines Its Antimicrobial Activity” (International Journal of Molecular Sciences, 2023).

Biological target: T1, Lchα (α-component of the lantibiotic lichenicidin) (Bacillus licheniformis, UniProt P86475)
T1 construct: gene lchA1; mature post-translationally modified lantibiotic, 32 residues (leader removed; N-terminal 2-oxobutyryl, Abu3-Cys7 ring A, four (methyl)lanthionine rings); native purification from culture supernatant, 15N-labelled, no tag
T1 sequence (P86475 43-74): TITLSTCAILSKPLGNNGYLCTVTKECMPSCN
Experiment: NMR titration ([…]-HSQC, Asn32 signal intensity)
Format: binding
Details: read-out: Kapp

Structure (SMILES): CC(=O)N[C@H]1[C@H](O[C@H]2[C@H](O[C@H](C)C(=O)N[C@@H](C)C(=O)N[C@H](CCC(=O)N[C@@H](CCCCN)C(=O)N[C@H](C)C(=O)N[C@H](C)C(=O)O)C(=O)O)[C@@H](NC(C)=O)[C@@H](OP(=O)(O)OP(=O)(O)OC/C=C(/C)CC/C=C(/C)CC/C=C(/C)CC/C=C(/C)CC/C=C(/C)CC/C=C(/C)CC/C=C(/C)CC/C=C(/C)CC/C=C(\C)CC/C=C(\C)CCC=C(C)C)O[C@@H]2CO)O[C@H](CO)[C@@H](O)[C@@H]1O [lipid II]
- Kd: ~10 µM
